Results as given in publication PMC12030706, “Novel ^177Lu-Labeled [Thz^14]Bombesin(6–14) Derivatives with Low Pancreas Accumulation for Targeting Gastrin-Releasing Peptide Receptor-Expressing Cancer” (Pharmaceuticals, 2025).
Numbered stars: 1 amine (or outer) side, 2 acyl side, 3 side chain; on linkers, the order of the positions; unused ones are H or OH. Square brackets hold non-standard residues; d marks the D form. Peptide text beside a SMILES is read from it. * marks the point of attachment. DOTA = O=C(O)CN1CCN(CC(=O)O)CCN(CC(=O)*)CCN(CC(=O)O)CC1; NMeH = CN[C@@H](Cc1c[nH]cn1)C(=O)O; X1 = O=C(CN1CCC(N[*:1])CC1)[*:2]; Tle = CC(C)(C)[C@H](N)C(=O)O; Thz = O=C(O)[C@@H]1CSCN1

Legend:
[1] = Ex vivo biodistribution in PC-3 tumor-bearing mice; details: mouse; for tissue uptake at 4 h: 4 h post-injection; for tissue uptake at 24 h: 24 h post-injection; for tissue uptake at 72 h: 72 h post-injection; for tissue uptake at 120 h: 120 h post-injection
Protocol: (§1) SPECT/CT imaging experiments were performed using an MILabs (Houten, The Netherlands) U-SPECT-II/CT scanner with a custom-made ultra-high-sensitivity big mouse collimator (2 mm pinhole size) following previously reported procedures. […] Male NOD.Cg-Rag1^tm1Mom Il2rg^tm1Wjl/SzJ (NRG) mice were used in these experiments because of their immunodeficient characteristics and excellent radiation tolerance. Mice were anaesthetized and subcutaneously implanted with 5 × 10^6 PC-3 prostate cancer cells (100 µL; 1:1 PBS/Matrigel) behind the left shoulder. SPECT/CT imaging and biodistribution studies were performed once the tumors reached a diameter of 5–8 mm, typically after approximately 4 weeks of growth.
(§2) For ex vivo biodistribution studies, the mice were injected with ~2–6 MBq of the radioligand. […] Blocking study was conducted at 1 h post-injection via co-injection of the radioligand with 100 μg of [D-Phe^6,Leu-NHEt^13,des-Met^14]Bombesin(6–14). Organs/tissues of interested were collected, weighed, and measured using an automatic gamma counter.

PC-3 tumor-bearing mice = test: Ex vivo biodistribution in PC-3 tumor-bearing mice
Protocol: as §1, §2

[2] = LogD7.4 measurement, shake flask method; assay type: physicochemical; details: n-octanol/DPBS pH 7.4, n = 3
Protocol: The logD7.4 values of all the ^177Lu-labeled GRPR-targeted ligands were measured using the shake flask method as previously reported. An aliquot (~2 MBq) of the radiolabeled product was added to a mixture of n-octanol (3 mL) and DPBS (3 mL, pH 7.4), followed by 1 min vortexing and 15 min centrifugation at 5000 rpm. Samples of the n-octanol (1 mL) and buffer (1 mL) layers were collected, and the activity was counted using a gamma counter. The logD7.4 values were calculated using the following equation: logD7.4=log10[countsn−octanolphase/countsbutterphase]

[3] = tested on: PC-3 tumor-bearing NRG mouse; test: Longitudinal SPECT/CT imaging in PC-3 tumor-bearing mice; assay type: in vivo, mice (NRG); details: SPECT/CT images
Protocol: The PC-3 tumor-bearing mice were sedated (2.5% isoflurane in O2) and injected with ^177Lu-labeled ligands (15–32 MBq) through a lateral caudal tail vein. […] At each time point, a 5 min CT scan was obtained using 615 μA and 60 kV parameters for localization and attenuation, followed by 2 × 30 min static SPECT scans acquired in list mode with an energy window centered around 208 keV. The MILabs U-SPECT II reconstruction software (version 8.00) was used to reconstruct data, and the images were decay corrected to the time of injection with PMOD v 3.402 (PMOD Technologies GmbH, Fallanden, Switzerland).

[4] = large intestine, Uptake in large intestine
[5] = small intestine, Uptake in small intestine
[6] = 1 h blocked (co-injected with 100 µg [D-Phe6,Leu-NHEt13,des-Met14]Bombesin(6-14))
[7] = 1 h post-injection, 100 µg [D-Phe6,Leu-NHEt13,des-Met14]Bombesin(6–14)

CC(C)C[C@H](NC(=O)[C@H](Cc1cnc[nH]1)N(C)C(=O)CNC(=O)[C@@H](NC(=O)[C@H](C)NC(=O)[C@H](Cc1c[nH]c2ccccc12)NC(=O)[C@H](Cc1c[nH]cn1)NC(=O)[C@@H](Cc1ccccc1)NC(=O)CN1CCC(NC(=O)CN2CCN(CC(=O)O)CCN(CC(=O)O)CCN(CC(=O)O)CC2)CC1)C(C)(C)C)C(=O)N1CSC[C@H]1C(N)=O [[^177Lu]Lu-LW01142, metal not drawn] ({DOTA}-[X1][dF]HWA[Tle]G[NMeH]L[Thz]-NH2)
tissue uptake at 4 h [1, 4]: 0.81 ± 0.21 %ID/g | tissue uptake at 24 h [1, 4]: 0.3 ± 0.12 %ID/g | tissue uptake at 72 h [1, 4]: 0.13 ± 0.05 %ID/g | tissue uptake at 120 h [1, 4]: 0.07 ± 0.04 %ID/g | tissue uptake at 1 h ([1]; liver, 100 ug, Uptake in liver, 1 h blocked (co-injected with 100 µg [D-Phe6,Leu-NHEt13,des-Met14]Bombesin(6-14))): 0.57 ± 0.15 %ID/g | tissue uptake at 4 h ([1]; liver, Uptake in liver): 0.33 ± 0.05 %ID/g | tissue uptake at 24 h ([1]; liver, Uptake in liver): 0.28 ± 0.07 %ID/g | tissue uptake at 120 h ([1]; liver, Uptake in liver): 0.08 ± 0.02 %ID/g | tissue uptake at 1 h ([1]; lungs, Uptake in lungs, 1 h post-injection): 1.53 ± 0.19 %ID/g | tissue uptake at 4 h ([1]; lungs, Uptake in lungs): 0.57 ± 0.21 %ID/g | tissue uptake at 24 h ([1]; lungs, Uptake in lungs): 0.16 ± 0.08 %ID/g | tissue uptake at 72 h ([1]; lungs, Uptake in lungs): 0.03 ± 0.01 %ID/g | tissue uptake at 120 h ([1]; lungs, Uptake in lungs): 0.03 ± 0.01 %ID/g | tissue uptake at 1 h ([1]; muscle, 100 ug, Uptake in muscle, 1 h blocked (co-injected with 100 µg [D-Phe6,Leu-NHEt13,des-Met14]Bombesin(6-14))): 0.23 ± 0.11 %ID/g | tissue uptake at 1 h ([1]; muscle, Uptake in muscle, 1 h post-injection): 0.22 ± 0.04 %ID/g | tissue uptake at 4 h ([1]; muscle, Uptake in muscle): 0.03 ± 0.01 %ID/g | tissue uptake at 24 h ([1]; muscle, Uptake in muscle): 0.01 %ID/g | tissue uptake at 72 h ([1]; muscle, Uptake in muscle): 0.01 %ID/g | tissue uptake at 1 h ([1]; pancreas, 100 ug, Uptake in pancreas, 1 h blocked (co-injected with 100 µg [D-Phe6,Leu-NHEt13,des-Met14]Bombesin(6-14))): 1.88 ± 0.42 %ID/g | tissue uptake at 4 h ([1]; pancreas, Uptake in pancreas): 1.57 ± 0.28 %ID/g | tissue uptake at 24 h ([1]; pancreas, Uptake in pancreas): ~1 %ID/g | tissue uptake at 72 h ([1]; pancreas, Uptake in pancreas): 0.68 ± 0.1 %ID/g | tissue uptake at 120 h ([1]; pancreas, Uptake in pancreas): 0.48 ± 0.08 %ID/g | tissue uptake at 1 h ([1]; small intestine, 100 ug, Uptake in small intestine, 1 h blocked (co-injected with 100 µg [D-Phe6,Leu-NHEt13,des-Met14]Bombesin(6-14))): 0.54 ± 0.1 %ID/g | tissue uptake at 1 h ([1]; small intestine, Uptake in small intestine, 1 h post-injection): 1.32 ± 0.42 %ID/g | tissue uptake at 4 h [1, 5]: 0.29 ± 0.08 %ID/g | tissue uptake at 24 h [1, 5]: 0.14 ± 0.03 %ID/g | tissue uptake at 72 h [1, 5]: 0.05 ± 0.01 %ID/g | tissue uptake at 120 h [1, 5]: 0.02 ± 0.02 %ID/g | tissue uptake at 1 h ([1]; spleen, 100 ug, Uptake in spleen, 1 h blocked (co-injected with 100 µg [D-Phe6,Leu-NHEt13,des-Met14]Bombesin(6-14))): 0.4 ± 0.04 %ID/g | tissue uptake at 24 h ([1]; spleen, Uptake in spleen): 0.14 ± 0.05 %ID/g | tissue uptake at 72 h ([1]; spleen, Uptake in spleen): 0.09 ± 0.02 %ID/g | tissue uptake at 120 h ([1]; spleen, Uptake in spleen): 0.09 ± 0.02 %ID/g | tissue uptake at 1 h ([1]; stomach, Uptake in stomach, 1 h post-injection): 0.6 ± 0.24 %ID/g | tissue uptake at 4 h ([1]; stomach, Uptake in stomach): 0.11 ± 0.04 %ID/g | tissue uptake at 24 h ([1]; stomach, Uptake in stomach): 0.16 ± 0.07 %ID/g | tissue uptake at 120 h ([1]; stomach, Uptake in stomach): 0.02 ± 0.01 %ID/g | tissue uptake at 1 h ([1]; testes, 100 ug, Uptake in testes, 1 h blocked (co-injected with 100 µg [D-Phe6,Leu-NHEt13,des-Met14]Bombesin(6-14))): 0.48 ± 0.16 %ID/g | tissue uptake at 4 h ([1]; testes, Uptake in testes): 0.05 ± 0.01 %ID/g | tissue uptake at 24 h ([1]; testes, Uptake in testes): 0.03 ± 0.01 %ID/g | tissue uptake at 72 h ([1]; testes, Uptake in testes): 0.02 %ID/g | tissue uptake at 120 h ([1]; testes, Uptake in testes): 0.01 %ID/g | Uptake in lungs (PC-3 tumor-bearing mice; [6]): 1.06 ± 0.27 %ID/g | Uptake in stomach (PC-3 tumor-bearing mice; [6]): 0.17 ± 0.06 %ID/g | Uptake in bone (PC-3 tumor-bearing mice; 1 h post-injection): 0.15 ± 0.03 %ID/g | Uptake in kidneys (PC-3 tumor-bearing mice; 1 h post-injection): 6.86 ± 0.81 %ID/g | Uptake in large intestine (PC-3 tumor-bearing mice; 1 h post-injection): 0.76 ± 0.16 %ID/g | Uptake in liver (PC-3 tumor-bearing mice; 1 h post-injection): 0.71 ± 0.08 %ID/g | Uptake in pancreas (PC-3 tumor-bearing mice; 1 h post-injection): 4.45 ± 0.83 %ID/g | Uptake in spleen (PC-3 tumor-bearing mice; 1 h post-injection): 0.47 ± 0.07 %ID/g | Uptake in testes (PC-3 tumor-bearing mice; 1 h post-injection): 0.32 ± 0.18 %ID/g | reduction of average pancreas uptake by co-injection of blocker (PC-3 tumor-bearing mice; [7]): 58% | reduction of average tumor uptake by co-injection of blocker (PC-3 tumor-bearing mice; [7]): 62% | Uptake in heart (PC-3 tumor-bearing mice; 4 h post-injection): 0.06 ± 0.01 %ID/g | Uptake in kidneys (PC-3 tumor-bearing mice; 4 h post-injection): 5.51 ± 0.54 %ID/g | Uptake in spleen (PC-3 tumor-bearing mice; 4 h post-injection): 0.17 ± 0.04 %ID/g | Uptake in pancreas (PC-3 tumor-bearing mice; 24 h post-injection): 1.06 ± 0.26 %ID/g | Uptake in liver (PC-3 tumor-bearing mice; 72 h post-injection): 0.12 ± 0.03 %ID/g | Uptake in stomach (PC-3 tumor-bearing mice; 72 h post-injection): 0.10 ± 0.05 %ID/g | Uptake in adrenal glands (PC-3 tumor-bearing mice; 120 h post-injection): 0.17 ± 0.09 %ID/g | uptake in PC-3 tumor xenografts cleared within 24 h (PC-3 tumor-bearing mice; relative to 1 h uptake): 47% | logD [2]: -2.28 ± 0.14 | excretion pathway [3]: excreted mainly via the renal pathway
